We go through three compounds from US12384751B2, “Allosteric activators of the ALPHA1A-adrenergic receptor” (The Cleveland Clinic Foundation, priority 2019, dated 2025).

Entries after “also recorded” stand apart in the source; their conditions may differ.

Assay [1] deals with T1, α1A-AR (Homo sapiens, UniProt P35348).
T1 sequence (P35348 1-466): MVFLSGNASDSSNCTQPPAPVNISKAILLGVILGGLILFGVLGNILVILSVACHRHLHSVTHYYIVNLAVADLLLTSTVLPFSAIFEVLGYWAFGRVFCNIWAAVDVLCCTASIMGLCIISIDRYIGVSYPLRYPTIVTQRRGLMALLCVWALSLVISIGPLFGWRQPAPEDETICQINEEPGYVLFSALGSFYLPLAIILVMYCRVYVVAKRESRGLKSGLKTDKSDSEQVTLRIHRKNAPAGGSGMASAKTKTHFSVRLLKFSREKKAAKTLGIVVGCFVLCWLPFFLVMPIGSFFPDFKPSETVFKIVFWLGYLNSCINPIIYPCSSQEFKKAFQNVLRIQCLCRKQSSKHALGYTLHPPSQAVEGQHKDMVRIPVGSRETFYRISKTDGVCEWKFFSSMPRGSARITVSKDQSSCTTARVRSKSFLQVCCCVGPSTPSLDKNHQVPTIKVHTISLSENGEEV
The assay is described as follows: cAMP assay at α1A-AR. The class given is cell-based. On the set-up: expressed in transfected cells; host or cells: Rat-1 fibroblast cells. To be noted: for effect on epinephrine-mediated cAMP response at the α1A-AR: 10^−5M to 10^−7M of compound; for effect on norepinephrine-mediated cAMP response at the α1A-AR: 10^−5M to 10^−9M of compound. The procedure: cAMP assay: Cells expressing a single α1-adrenergic receptor subtype are washed and re-plated into 24-well plates in DMEM media without serum at approximately 2.4×10^4 cells/well. Cells are allowed to rest till the next day in a CO2 incubator at 37° C. The cells are washed twice with DMEM (no serum), then 1 ml of DMEM is added to each well. Cells are pre-incubated for 45 mins-1 hour at 37° C. in a CO2 incubator with 10 uM propranolol, followed by 100 uM IBMX for 30 minutes. Final DMSO concentration is at 0.05%. Norepinephrine or epinephrine is added in a dose response (1 dose per well) in addition to one of the Compounds 1-10 at one concentration (i.e. 10^−5M). Cells are incubated for another 30 mins at 37° C. in a CO2 incubator. The reaction is concluded by aspirating the media and adding 0.1M HCL. The mixture is incubated for 20 mins at room temperature. The cells are scraped and suspended until homogenous. The mixture is centrifuged at 1000 g for 10 mins and the supernatant assayed the same day according to a manufacturer's cAMP kit (Cayman Select Cyclic AMP EIA kit #501040).
On the technique in general: Changes in cAMP serve as a functional read-out for many G protein-coupled receptors.

Assay [2] deals with T1, α1A-AR. The assay is described as follows: Total inositol phosphate assay at α1A-AR. The class given is cell-based. Set-up: expressed in transfected cells; host or cells: Rat-1 fibroblast cells. The note with it: for stimulation of inositol phosphate / agonist activity by the compound by itself: compound alone. The procedure:
Total Inositol Phosphate assay: Cells expressing a single α1-adrenergic receptor subtypes are washed and re-plated into 6-well plates containing DMEM media at approximately 5×10^5 cells/well. Cells are allowed to rest till the next day in a CO2 incubator at 37° C. The cells are washed twice with DMEM (no serum), then 2 ml of DMEM is added to each well. 2 ul of ^3H-inositol (at 1 uCi/mL, Perkin-Elmer NET 114 005MC) and 10 mM LiCl is added to each well. The cells are incubated for 1 hour at 37° C. in a CO2 incubator. […] The cells are incubated again for 1 hour at 37° C. in a CO2 incubator. The media is aspirated and 1 mL of ice-cold 0.4M perchloric acid is added. The cells are scraped, transferred to a vial, then 1 mL 0.72M KOH/0.6M KHCO3 is added, the tube vortexed and the contents centrifuged at 2000 rpm for 10 mins. The supernatant is removed and applied to BioRad polyprep columns packed with 1 mL of AG1-X8 resin (BioRad AG1-X8 resin 100-200 mesh #140-1444) in 0.1M formic acid in a holding tray which is over a plastic catch tray. The supernatant is allowed to naturally drip through the column then washed with 8 ml of 0.1M formic acid (2 ml at a time). The columns are transferred via the holding tray to a box of 20 ml scintillation vials so that the columns drip directly into the vials. Total inositol phosphates are eluted off the column with 2 ml of 0.1M formic acid/1M ammonium formate. The columns are eluted a second time into a new scintillation vial with another 2 ml of 0.1M formic acid/1M ammonium formate. 18 ml of Ecoscint A is added to each scintillation vial and vortexed. The vials are allowed to dark adapt overnight at room temperature to reduce autofluorescence. The vials are counted in a scintillation counter on the tritium channel and the cpms from the first and second fractions eluted off the columns are added together.

For assay [3], the target named is T1, α1A-AR. Nature of the assay: Competition binding with [125I]HEAT at α1A-AR (Rat-1 fibroblast membranes). Set-up: expressed in transfected cells; host or cells: Rat-1 fibroblast cells. The method, then: Competition binding assays: […] Assays were performed in duplicate in HEM buffer, in a total assay volume of 1000 μl. […] The above conditions will convert all the conformations of the receptor into a single low affinity site. To show both high and low affinity sites of the receptor (typically seen with GPCR agonists), the GTP is removed from the binding buffer. Nonspecific binding was determined experimentally in the presence of 10^−4 M phentolamine. Unbound radioactivity was separated from membrane-bound radioactivity by filtration through Whatman GF/C filter paper. Filters are washed five times with 5 ml of cold HEM buffer containing 0.5 mMGTP (if added to the binding buffer but not if it was not added to the binding buffer). Bound radioactivity remaining on the filters was counted on an ICN gamma counter operating at 79.8% efficiency. Data are analyzed using Graphpad Prism.

The test system of assay [4] is Normal mice. The note with it: cited from earlier work.
In assay [5] the target is T1, α1A-AR. The assay is described as follows: Effect of compound on binding affinity of norepinephrine, epinephrine or other ligands at α1A-AR. Set-up: expressed in transfected cells; host or cells: Rat-1 fibroblast cells. The note with it: for effect on binding affinity of epinephrine at the α1A-AR: 10^−5M (highest dose tested); for effect on binding affinity of norepinephrine at the α1A-AR: fixed dose of compound, 10^−5M to 10^−9M. The procedure:
Competition binding assays: These compounds were characterized for their ligand binding properties at the α1-AR subtypes. The binding affinities of Compounds 1-10 were determined in a series of competition-binding experiments with the α1-AR-selective antagonist [^125I]HEAT as the radioligand. Assays were performed in duplicate in HEM buffer, in a total assay volume of 1000 μl. Radioligand binding assays are composed of 5 ug of membranes, harvested from Rat-1 fibroblast cells expressing only one of the alpha1-AR subtypes, HEM buffer containing GTP (composed of 20 mM HEPES, pH 7.4, 1.4 mM EGTA, 12.5 mM MgCl2, pH to 7.4), 0.5 mM GTP, 35-80 pM^125I-HEAT, and various doses of norepinephrine or epinephrine and incubated with shaking at 25° C. for 1-2 hours. The above conditions will convert all the conformations of the receptor into a single low affinity site. To show both high and low affinity sites of the receptor (typically seen with GPCR agonists), the GTP is removed from the binding buffer. Nonspecific binding was determined experimentally in the presence of 10^−4 M phentolamine. Unbound radioactivity was separated from membrane-bound radioactivity by filtration through Whatman GF/C filter paper. Filters are washed five times with 5 ml of cold HEM buffer containing 0.5 mMGTP (if added to the binding buffer but not if it was not added to the binding buffer). Bound radioactivity remaining on the filters was counted on an ICN gamma counter operating at 79.8% efficiency. Data are analyzed using Graphpad Prism.
To determine the effects of compounds 1-10 on the binding affinity of norepinephrine or epinephrine, the competition binding assay was repeated as above with one dose of each individual compound (i.e. 10^−5M) added to each concentration point. Data are normalized to the norepinephrine or epinephrine binding curve alone without the addition of the compound to measure its effect on binding.

For assay [6], the target named is α1-ARs. To be noted: read-out: calculated Ki; cited from earlier work.

On to `Cc1c(OCC2=NCCN2)ccc(Cl)c1NS(C)(=O)=O.Cl` [RO115-1240], for which, in assay [1], the “PAM activity / PAM type” value is “no evidence of PAM activity”; the “effect on epinephrine-mediated cAMP response at the α1A-AR” value was “competitive, not PAM behavior; also recorded: shift the curve to the right to lower potency (inhibition)”; the “effect on norepinephrine-mediated cAMP response at the α1A-AR” value is listed as “antagonist at cAMP; also recorded: competitive, not PAM behavior; also recorded: shift the curve to the right to lower potency (inhibition)”. In addition, in assay [2], the “effect on epinephrine-mediated inositol phosphate response at the α1A-AR” value was “competitive/noncompetitive partial agonism, not PAM behavior”; the “effect on norepinephrine-mediated inositol phosphate response at the α1A-AR” value is recorded as “competitive/noncompetitive partial agonism, not PAM behavior”; the “stimulation of inositol phosphate / agonist activity by the compound by itself” value is “weak partial agonist; also recorded: significant IP response on its own”. Moreover, in assay [3], the “binding behaviour against radiolabeled antagonist 125I-HEAT (full inhibition; competitive or allosteric)” value is reported as “competitive not allosteric behavior”; the “selectivity for the α1A-AR over the α1B-AR and α1D-AR subtypes” value came out at 100 fold.

Consider `c1ccc(C2CC2)c(OCC2=NCCN2)c1` [cirazoline], for which, in assay [4], the cognition result is recorded as “increased” and the neurogenesis result is recorded as “increased”. In assay [1], the “PAM activity / PAM type” value is “no evidence of PAM activity”; the “effect on epinephrine-mediated cAMP response at the α1A-AR” value is given as “competitive, not PAM behavior”; the “effect on norepinephrine-mediated cAMP response at the α1A-AR” value is “competitive, not PAM behavior”. In assay [2], the “effect on epinephrine-mediated inositol phosphate response at the α1A-AR” value is recorded as “competitive/noncompetitive partial agonism, not PAM behavior”; the “effect on norepinephrine-mediated inositol phosphate response at the α1A-AR” value is “competitive/noncompetitive partial agonism, not PAM behavior”; the “stimulation of inositol phosphate / agonist activity by the compound by itself” value was “full agonist at the IP response; also recorded: strong agonist at the IP response”. Further, in assay [5], the “effect on binding affinity of epinephrine at the α1A-AR” value is “totally inhibit the binding” and the “effect on binding affinity of norepinephrine at the α1A-AR” value is listed as “totally inhibit the binding”. In assay [5] (listed as Cirazoline), the “effect on binding affinity of epinephrine at the α1A-AR” value is on record as “fully inhibit” and the “effect on binding affinity of norepinephrine at the α1A-AR” value is listed as “does not increase the affinity of norepinephrine”.

As a reminder, the Ki is the equilibrium dissociation constant of an inhibitor or competing ligand from its target. Turning to `COc1cc2nc(N3CCN(C(=O)c4ccco4)CC3)nc(N)c2cc1OC` [prazosin], in assay [6], the inhibition constant Ki is 1 nM.
